Source: ChEMBL document CHEMBL5338717, “Discovery of novel PDE4 inhibitors targeting the M-pocket from natural mangostanin with improved safety for the treatment of Inflammatory Bowel Diseases” (Eur J Med Chem, 2022)
The source made the active and inactive calls. No cut-off for these calls is given here.

What was measured:
Cytochrome P450 2D6 = Cytochrome P450 2D6 (Homo sapiens, UniProt P10635); assay: Inhibition of human CYP2D6 in human hepatocytes; assay type: ADME, cell-based, Hepatocyte
Mus musculus [1] = assay: Anti-inflammatory bowel disease activity in DSS-induced inflammatory bowel disease C57BL/6 mouse model assessed as decrease in diarrhoea by measuring disease activity index score at 5 mg/kg, iv BID and measured upto 8 days; assay type: functional, organism-based; conditions: time <= 8.0 day
[2] = biological target: cGMP-dependent 3',5'-cyclic phosphodiesterase (Homo sapiens, UniProt O00408); assay: Inhibition of recombinant PDE2A (580 to 919 residues) (unknown origin) expressed in Escherichia coli BL21 using [3H]cGMP as substrate incubated for 15 mins by liquid scintillation method
Cytochrome P450 2B6 = biological target: T1, Cytochrome P450 2B6 (Homo sapiens, UniProt P20813); assay: Inhibition of human CYP2B6 in human hepatocytes; assay type: ADME, cell-based, Hepatocyte
T1 sequence (P20813 whole entry): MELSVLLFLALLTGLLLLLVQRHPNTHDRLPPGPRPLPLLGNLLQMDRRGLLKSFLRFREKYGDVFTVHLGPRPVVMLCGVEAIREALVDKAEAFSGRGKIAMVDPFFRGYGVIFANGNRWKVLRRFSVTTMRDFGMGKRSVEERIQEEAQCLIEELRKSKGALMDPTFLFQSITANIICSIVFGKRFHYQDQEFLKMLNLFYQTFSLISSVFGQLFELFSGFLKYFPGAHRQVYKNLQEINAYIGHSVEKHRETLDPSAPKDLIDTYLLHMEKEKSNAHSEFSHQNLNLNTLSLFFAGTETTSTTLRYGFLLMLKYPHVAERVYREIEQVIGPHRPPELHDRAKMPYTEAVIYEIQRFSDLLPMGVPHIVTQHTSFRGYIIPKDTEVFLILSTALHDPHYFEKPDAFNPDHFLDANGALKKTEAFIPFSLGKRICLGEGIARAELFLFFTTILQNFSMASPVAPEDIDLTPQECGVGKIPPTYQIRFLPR

[3] = Volume of distribution at steady state in Sprague-Dawley rat at 2.5 mg/kg, iv; assay type: ADME, organism-based; conditions: in vivo, read-out: Vdss
[4] = Toxicity in twelve hrs fasted Beagle dog assessed as emesis at 10 mg/kg,po and measured upto 180 mins; assay type: organism-based, Canis lupus familiaris; conditions: in vivo, 3 h
Mus musculus [5] = assay: Anti-inflammatory bowel disease activity in DSS-induced inflammatory bowel disease C57BL/6 mouse model assessed as decrease in goblet cells in colon at 5 mg/kg, iv BID and measured after 8 days by Haematoxylin and eosin staining based microscopy; assay type: functional, organism-based; conditions: time 8.0 day
[6] = biological target: High affinity cAMP-specific and IBMX-insensitive 3',5'-cyclic phosphodiesterase 8A (Homo sapiens, UniProt O60658); assay: Inhibition of recombinant PDE8A1 (480 to 828 residues) (unknown origin) expressed in Escherichia coli BL21 using [3H]cAMP as substrate incubated for 15 mins by liquid scintillation method
[7] = MRT(0 to 24 hrs) in Sprague-Dawley rat at 2.5 mg/kg, iv; assay type: ADME, organism-based; conditions: in vivo
[8] = biological target: 3',5'-cyclic-AMP phosphodiesterase 4D (Homo sapiens, UniProt Q08499); assay: Inhibition of recombinant PDE4D2 (86 to 413 residues) (unknown origin) expressed in Escherichia coli BL21 using [3H]cAMP as substrate incubated for 15 mins by liquid scintillation method
[9] = Clearance in Sprague-Dawley rat at 2.5 mg/kg, iv; assay type: ADME, organism-based; conditions: in vivo
[10] = Selectivity index, ratio of IC50 for inhibition of recombinant PDE3A (679 to 1087 residues) (unknown origin) expressed in Escherichia coli BL21 to IC50 for inhibition of recombinant PDE4D2 (86 to 413 residues) (unknown origin) expressed in Escherichia coli BL21
[11] = Metabolic stability in rat liver microsomes assessed as half life; assay type: ADME, Microsome
[12] = biological target: cAMP and cAMP-inhibited cGMP 3',5'-cyclic phosphodiesterase 10A (Homo sapiens, UniProt Q9Y233); assay: Inhibition of recombinant PDE10A2 (449 to 770 residues) (unknown origin) expressed in Escherichia coli BL21 using [3H]cAMP as substrate incubated for 15 mins by liquid scintillation method
Mus musculus [13] = assay: Anti-inflammatory bowel disease activity in DSS-induced inflammatory bowel disease C57BL/6 mouse model assessed as decrease in IL-10 mRNA expression level in colon at 5 mg/kg, iv BID and measured after 8 days by real-time PCR analysis; assay type: functional, organism-based; conditions: time 8.0 day
[14] = biological target: cGMP-inhibited 3',5'-cyclic phosphodiesterase 3A (Homo sapiens, UniProt Q14432); assay: Inhibition of recombinant PDE3A (679 to 1087 residues) (unknown origin) expressed in Escherichia coli BL21 using [3H]cAMP as substrate incubated for 15 mins by liquid scintillation method
[15] = Selectivity index, ratio of IC50 for inhibition of recombinant PDE4B2 (152 to 487 residues) (unknown origin) expressed in Escherichia coli BL21 to IC50 for inhibition of recombinant PDE4D2 (86 to 413 residues) (unknown origin) expressed in Escherichia coli BL21
[16] = AUC(0 to 24 hrs) in Sprague-Dawley rat at 2.5 mg/kg, iv; assay type: ADME, organism-based; set-up: dose 2.5 mg/kg, route iv; conditions: in vivo
Cytochrome P450 3A4 = Cytochrome P450 3A4 (Homo sapiens, UniProt P08684); assay: Inhibition of human CYP3A4 in human hepatocytes; assay type: ADME, cell-based, Hepatocyte
[17] = Selectivity index, ratio of IC50 for inhibition of recombinant PDE8A1 (480 to 828 residues) (unknown origin) expressed in Escherichia coli BL21 to IC50 for inhibition of recombinant PDE4D2 (86 to 413 residues) (unknown origin) expressed in Escherichia coli BL21
Mus musculus [18] = assay: Anti-inflammatory bowel disease activity in DSS-induced inflammatory bowel disease C57BL/6 mouse assessed as decrease in neutrophil infiltration in colon at 5 mg/kg, iv BID and measured after 8 days by Haematoxylin and eosin staining based microscopy; assay type: functional, organism-based; conditions: time 8.0 day
Cytochrome P450 2C9 = Cytochrome P450 2C9 (Homo sapiens, UniProt P11712); assay: Inhibition of human CYP2C9 in human hepatocytes; assay type: ADME, cell-based, Hepatocyte
Mus musculus [19] = assay: Anti-inflammatory bowel disease activity in DSS-induced inflammatory bowel disease C57BL/6 mouse model assessed as decrease in mucosal ulceration in colon at 5 mg/kg, iv BID and measured after 8 days by Haematoxylin and eosin staining based microscopy; assay type: functional, organism-based; conditions: time 8.0 day
[20] = Acute toxicity in mouse assessed as body weight change at 0.75 g/Kg,po; conditions: in vivo, 750 mg/kg
[21] = biological target: Dual specificity calcium/calmodulin-dependent 3',5'-cyclic nucleotide phosphodiesterase 1C (Homo sapiens, UniProt Q14123); assay: Inhibition of recombinant PDE1C (147 to 531 residues) (unknown origin) expressed in Escherichia coli BL21 using [3H]cGMP as substrate incubated for 15 mins by liquid scintillation method
Mus musculus [22] = assay: Anti-inflammatory bowel disease activity in DSS-induced inflammatory bowel disease C57BL/6 mouse model assessed as decrease in body weight loss by measuring disease activity index score at 5 mg/kg, iv BID and measured upto 8 days; assay type: functional, organism-based; conditions: time <= 8.0 day
[23] = Selectivity index, ratio of IC50 for inhibition of recombinant PDE10A2 (449 to 770 residues) (unknown origin) expressed in Escherichia coli BL21 to IC50 for inhibition of recombinant PDE4D2 (86 to 413 residues) (unknown origin) expressed in Escherichia coli BL21

Sequence of cGMP-dependent 3',5'-cyclic phosphodiesterase (O00408 whole entry, the tested form may be a part): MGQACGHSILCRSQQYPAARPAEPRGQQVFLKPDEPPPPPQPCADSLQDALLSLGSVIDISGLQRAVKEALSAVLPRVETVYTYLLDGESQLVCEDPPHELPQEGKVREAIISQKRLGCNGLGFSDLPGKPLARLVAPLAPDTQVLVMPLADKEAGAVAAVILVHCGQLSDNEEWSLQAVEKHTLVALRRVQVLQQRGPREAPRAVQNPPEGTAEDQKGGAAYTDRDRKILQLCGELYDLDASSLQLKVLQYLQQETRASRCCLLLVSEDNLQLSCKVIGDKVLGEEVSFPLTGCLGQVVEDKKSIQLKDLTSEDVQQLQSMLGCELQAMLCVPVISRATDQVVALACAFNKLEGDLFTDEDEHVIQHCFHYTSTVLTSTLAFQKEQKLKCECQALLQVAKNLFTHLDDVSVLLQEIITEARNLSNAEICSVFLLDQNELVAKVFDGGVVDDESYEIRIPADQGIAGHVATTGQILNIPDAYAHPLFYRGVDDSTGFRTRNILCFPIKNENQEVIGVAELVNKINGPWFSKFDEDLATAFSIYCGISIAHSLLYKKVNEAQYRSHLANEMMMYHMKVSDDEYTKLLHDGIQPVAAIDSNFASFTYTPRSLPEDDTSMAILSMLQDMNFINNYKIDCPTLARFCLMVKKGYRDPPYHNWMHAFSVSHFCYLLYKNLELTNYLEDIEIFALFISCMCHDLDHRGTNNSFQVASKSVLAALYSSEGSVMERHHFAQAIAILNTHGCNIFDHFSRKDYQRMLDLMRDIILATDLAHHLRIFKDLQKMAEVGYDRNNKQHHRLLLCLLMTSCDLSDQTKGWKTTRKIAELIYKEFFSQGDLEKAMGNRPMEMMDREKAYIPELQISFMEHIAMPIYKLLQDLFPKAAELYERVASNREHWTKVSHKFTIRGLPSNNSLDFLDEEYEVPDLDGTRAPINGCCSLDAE
Sequence of cGMP-inhibited 3',5'-cyclic phosphodiesterase 3A (Q14432 whole entry, the tested form may be a part): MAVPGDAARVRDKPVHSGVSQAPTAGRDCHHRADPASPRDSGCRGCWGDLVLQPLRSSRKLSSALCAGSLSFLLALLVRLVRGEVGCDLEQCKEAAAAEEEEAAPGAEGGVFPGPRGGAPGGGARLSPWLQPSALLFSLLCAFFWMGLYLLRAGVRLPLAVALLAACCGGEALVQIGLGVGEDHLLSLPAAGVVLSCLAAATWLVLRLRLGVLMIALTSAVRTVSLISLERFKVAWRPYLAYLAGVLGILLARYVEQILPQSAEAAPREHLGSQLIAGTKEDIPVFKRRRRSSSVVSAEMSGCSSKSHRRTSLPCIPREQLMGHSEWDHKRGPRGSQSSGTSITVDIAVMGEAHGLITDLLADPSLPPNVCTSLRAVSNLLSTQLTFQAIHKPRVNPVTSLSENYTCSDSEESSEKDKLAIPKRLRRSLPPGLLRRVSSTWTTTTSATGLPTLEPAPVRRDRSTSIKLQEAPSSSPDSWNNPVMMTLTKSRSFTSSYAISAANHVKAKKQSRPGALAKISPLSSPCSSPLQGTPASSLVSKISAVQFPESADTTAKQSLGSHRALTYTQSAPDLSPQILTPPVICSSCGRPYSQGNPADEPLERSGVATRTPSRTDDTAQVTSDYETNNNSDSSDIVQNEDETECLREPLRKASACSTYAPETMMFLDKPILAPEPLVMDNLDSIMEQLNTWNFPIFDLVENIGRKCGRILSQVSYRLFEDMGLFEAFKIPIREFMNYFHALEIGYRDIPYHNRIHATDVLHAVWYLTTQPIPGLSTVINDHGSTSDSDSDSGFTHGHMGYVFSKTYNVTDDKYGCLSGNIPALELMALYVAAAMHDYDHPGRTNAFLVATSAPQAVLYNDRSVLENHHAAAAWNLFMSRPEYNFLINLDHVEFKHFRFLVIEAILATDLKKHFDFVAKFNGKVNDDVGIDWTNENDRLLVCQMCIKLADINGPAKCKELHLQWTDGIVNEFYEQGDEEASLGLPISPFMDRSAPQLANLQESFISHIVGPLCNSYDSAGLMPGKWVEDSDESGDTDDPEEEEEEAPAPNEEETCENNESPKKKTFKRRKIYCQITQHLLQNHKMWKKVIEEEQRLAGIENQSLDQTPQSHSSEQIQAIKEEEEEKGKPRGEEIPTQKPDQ
Sequence of Dual specificity calcium/calmodulin-dependent 3',5'-cyclic nucleotide phosphodiesterase 1C (Q14123 whole entry, the tested form may be a part): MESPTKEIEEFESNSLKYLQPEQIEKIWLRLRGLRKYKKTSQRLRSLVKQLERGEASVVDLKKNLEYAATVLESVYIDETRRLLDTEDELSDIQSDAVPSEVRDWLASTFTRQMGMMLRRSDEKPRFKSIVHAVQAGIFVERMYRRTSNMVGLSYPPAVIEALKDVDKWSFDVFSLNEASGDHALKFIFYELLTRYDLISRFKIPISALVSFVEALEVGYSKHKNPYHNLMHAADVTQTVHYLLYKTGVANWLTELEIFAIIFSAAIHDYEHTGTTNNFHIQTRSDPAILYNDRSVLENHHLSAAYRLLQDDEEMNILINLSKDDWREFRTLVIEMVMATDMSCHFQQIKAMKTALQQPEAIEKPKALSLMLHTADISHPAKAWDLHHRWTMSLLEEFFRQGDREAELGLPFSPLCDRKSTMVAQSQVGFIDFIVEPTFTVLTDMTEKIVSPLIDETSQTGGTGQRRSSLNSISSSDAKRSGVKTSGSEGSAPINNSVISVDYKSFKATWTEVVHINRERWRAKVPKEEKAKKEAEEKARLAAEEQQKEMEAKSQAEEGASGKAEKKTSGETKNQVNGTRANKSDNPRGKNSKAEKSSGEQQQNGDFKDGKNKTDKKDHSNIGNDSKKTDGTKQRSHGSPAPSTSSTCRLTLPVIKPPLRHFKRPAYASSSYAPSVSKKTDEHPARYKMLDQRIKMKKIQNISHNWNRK
Sequence of Cytochrome P450 2D6 (P10635 whole entry): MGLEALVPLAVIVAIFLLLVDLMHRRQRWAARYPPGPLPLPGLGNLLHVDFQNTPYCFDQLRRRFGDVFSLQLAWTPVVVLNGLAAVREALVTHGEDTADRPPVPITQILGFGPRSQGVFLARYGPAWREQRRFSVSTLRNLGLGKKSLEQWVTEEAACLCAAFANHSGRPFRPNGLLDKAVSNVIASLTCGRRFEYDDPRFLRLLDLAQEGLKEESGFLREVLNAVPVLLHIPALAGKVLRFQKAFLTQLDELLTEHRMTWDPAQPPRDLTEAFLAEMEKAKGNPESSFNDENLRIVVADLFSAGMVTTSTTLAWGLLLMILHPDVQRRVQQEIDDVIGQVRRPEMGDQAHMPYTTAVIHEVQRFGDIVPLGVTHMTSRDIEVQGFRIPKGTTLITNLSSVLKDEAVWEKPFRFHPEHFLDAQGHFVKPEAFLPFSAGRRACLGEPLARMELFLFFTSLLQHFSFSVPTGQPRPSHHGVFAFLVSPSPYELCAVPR
Sequence of 3',5'-cyclic-AMP phosphodiesterase 4D (Q08499 whole entry, the tested form may be a part): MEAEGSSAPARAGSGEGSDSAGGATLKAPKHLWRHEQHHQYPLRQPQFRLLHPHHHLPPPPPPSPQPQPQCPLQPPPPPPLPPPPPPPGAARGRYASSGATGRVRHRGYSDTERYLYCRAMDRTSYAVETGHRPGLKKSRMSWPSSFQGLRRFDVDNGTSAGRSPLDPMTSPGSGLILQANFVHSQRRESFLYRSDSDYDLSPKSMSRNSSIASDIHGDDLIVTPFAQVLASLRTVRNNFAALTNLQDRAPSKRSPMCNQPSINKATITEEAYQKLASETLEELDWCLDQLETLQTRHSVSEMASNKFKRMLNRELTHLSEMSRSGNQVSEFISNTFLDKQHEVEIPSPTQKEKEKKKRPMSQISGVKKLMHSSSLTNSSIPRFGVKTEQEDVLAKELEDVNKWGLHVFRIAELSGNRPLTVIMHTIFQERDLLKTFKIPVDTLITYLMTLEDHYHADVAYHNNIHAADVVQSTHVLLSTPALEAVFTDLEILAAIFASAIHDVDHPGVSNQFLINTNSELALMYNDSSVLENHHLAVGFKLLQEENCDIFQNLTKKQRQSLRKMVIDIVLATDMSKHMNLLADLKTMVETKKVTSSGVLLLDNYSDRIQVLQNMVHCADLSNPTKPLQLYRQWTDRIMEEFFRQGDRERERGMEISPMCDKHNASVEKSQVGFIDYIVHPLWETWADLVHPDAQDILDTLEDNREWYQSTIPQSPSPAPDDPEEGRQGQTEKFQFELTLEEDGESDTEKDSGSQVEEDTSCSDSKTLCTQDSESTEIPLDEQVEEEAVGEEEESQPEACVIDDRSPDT
Sequence of Cytochrome P450 2C9 (P11712 whole entry): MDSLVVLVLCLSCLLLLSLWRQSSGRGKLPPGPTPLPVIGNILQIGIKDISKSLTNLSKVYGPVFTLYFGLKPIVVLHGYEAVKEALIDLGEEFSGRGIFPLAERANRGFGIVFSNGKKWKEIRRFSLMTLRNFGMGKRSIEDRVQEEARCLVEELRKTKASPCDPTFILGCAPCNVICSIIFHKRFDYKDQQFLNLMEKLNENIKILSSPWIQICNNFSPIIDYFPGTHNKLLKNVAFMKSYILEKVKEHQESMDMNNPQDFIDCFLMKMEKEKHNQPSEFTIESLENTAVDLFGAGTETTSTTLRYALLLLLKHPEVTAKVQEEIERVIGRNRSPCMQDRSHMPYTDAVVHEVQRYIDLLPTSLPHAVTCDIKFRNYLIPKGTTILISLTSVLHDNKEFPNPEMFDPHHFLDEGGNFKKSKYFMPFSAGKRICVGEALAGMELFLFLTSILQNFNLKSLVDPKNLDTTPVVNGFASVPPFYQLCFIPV

With `COc1c(OCC2CC2)cc2oc3cc4c(c(OCc5ccncc5)c3c(=O)c2c1CC=C(C)C)C=CC(C)(C)O4` the IC50 (Cytochrome P450 2D6) was > 25 µM, the Activity (Mus musculus [1]) was “Active” and the IC50 [2] was > 10 µM. For the same compound, the IC50 (Cytochrome P450 2B6) was > 25 µM, the Vd [3] was 0.673 L/kg and the Activity [4] was “Non-Toxic”. The Activity (Mus musculus [5]) was “Active”, the IC50 [6] was 0.194 µM and the MRT last [7] was 1.76 h. The IC50 [8] was 0.0035 µM, the clearance [9] was 6.4 mL/min/kg and the Ratio IC50 [10] was > 2800. The half-life [11] was 7.42 h, the IC50 [12] was 1.02 µM and the Activity (Mus musculus [13]) was “Active”. The IC50 [14] was > 10 µM, the Ratio IC50 [15] was 2.71 and the AUC(0-t) [16] was 6520 ng·h/mL. For the same compound, the IC50 (Cytochrome P450 3A4) was 6.1 µM, the Ratio IC50 [17] was 55 and the Activity (Mus musculus [18]) was “Active”. For the same compound, the IC50 (Cytochrome P450 2C9) was 4.1 µM, the Activity (Mus musculus [19]) was “Active” and the Activity [20] was “Non-Toxic”. The IC50 [21] was > 10 µM, the Activity (Mus musculus [22]) was “Active” and the Ratio IC50 [23] was 290.
